Measured values taken from paper PMC8944544, “IPA-3: An Inhibitor of Diadenylate Cyclase of Streptococcus suis with Potent Antimicrobial Activity” (Antibiotics, 2022).
pIC50: −log10 of the molar value.

Key:
[1] = biological target: T1, diadenylate cyclase of Streptococcus suis (ssDacA) (Streptococcus suis, UniProt A0A0H3N0L3); assay: Kinase-Glo ATP consumption assay with purified enzyme ([…] ssDacA); confirmed by HPLC of c-di-AMP; assay type: biochemical
T1 construct: gene dacA; C-terminal catalytic domain (residues 99 to 283), His-tagged, from S. suis SC19
T1 sequence (A0A0H3N0L3 entry or part of it): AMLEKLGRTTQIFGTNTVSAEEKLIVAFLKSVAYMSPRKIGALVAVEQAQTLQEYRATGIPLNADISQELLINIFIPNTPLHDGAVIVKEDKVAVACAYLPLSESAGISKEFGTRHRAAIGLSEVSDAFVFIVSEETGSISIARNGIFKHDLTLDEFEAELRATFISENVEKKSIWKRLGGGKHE

[2] = biological target: T1, diadenylate cyclase of Streptococcus suis (ssDacA); assay: HPLC quantification of product formed by purified enzyme; assay type: biochemical

`Oc1ccc2ccccc2c1SSc1c(O)ccc2ccccc12` [IPA-3, 2,2′-dihydroxy-1,1′-dinapthyldisulfide] was tested, and the pIC50 [1] was 4.42.

In the case of `Nc1ncnc2c1ncn2[C@@H]1O[C@@H]2COP(=O)(O)O[C@H]3[C@@H](O)[C@H](n4cnc5c(N)ncnc54)O[C@@H]3COP(=O)(O)O[C@H]2[C@H]1O` [c-di-AMP], the “HPLC quantification of product formed by purified enzyme” value [2] was “the catalytic product c-di-AMP in the reaction was detected in the presence and absence of IPA-3 in vitro”.
